From PubChem BioAssay AID602464 (Sanford-Burnham Center for Chemical Genomics, 2012)
The source made the active and inactive calls. No stated cut-off is given here; in the data, active means IC50 below about 20 µM; inactive means the rest.

System: Gli-responsive luciferase reporter cells, SUFU pathway antagonism
Experiment: Gli-SUFU pathway antagonists, dose response, cell-based, luciferase luminescence, uHTS hits (AID 602464)

CCCOc1ccccc1N/C(=N/c1nc(C)cc(C)n1)NC(=O)COc1ccc(OC)cc1
IC50: 7.7 µM

Cc1cccc(CCN2C(N(C)C)=NC[C@@H]2CC(C)C)c1
IC50: 10.3 µM

Cc1ccc(C)c(N2CC(O)(c3cccs3)[N+]3=C2CCCC3)c1 (stereo unspecified)
IC50: 10.4 µM

COc1ccc2c(c1)c(C)cc[n+]2Cc1ccccc1
IC50: 3.86 µM

FC(F)Oc1ccc(-n2cc(-c3ccccc3)[n+]3c2CCCCC3)cc1
IC50: 8.14 µM

CCN(CC(=O)Nc1c(F)cccc1F)C(=O)c1cc(S(=O)(=O)N(CC)CC)ccc1N1CCCCC1
IC50: 12.2 µM

CCOc1ccc(NC(=S)NNc2ccnc3cc(Cl)ccc23)cc1
IC50: 5.36 µM

Cc1sc2ncnc(N3CCN(S(=O)(=O)c4ccc(C(C)(C)C)cc4)CC3)c2c1C
IC50: 5.43 µM

CC(=O)c1c(C)[nH]c(C(=O)OCC(=O)Nc2sc3c(c2C#N)CCCC3)c1C
IC50: 5.59 µM

CC(C)=CCC/C(C)=C/CNC(=O)C[C@H]1C[C@H](C(=O)N2CCOCC2)[C@@]2(C)c3[nH]c4cc(CCC(=O)N(C)C)ccc4c3CCN2C1=O
IC50: 4.63 µM

CCOC(=O)CC1CCCCN1C(=O)c1cc(COc2cccc3cnccc23)on1 (stereo unspecified)
IC50: 4.47 µM

C[N+]1(CC(=O)OC2CCCCCCCCCCC2)CCCC1
IC50: 19.3 µM

COc1cccc(CN(C)C(=O)c2cc(COc3ccc4ncccc4c3)on2)c1
IC50: 5.39 µM

CCOc1ccc(-c2cc(C)[n+](CCO)c(-c3ccc(OCC)cc3)c2)cc1
IC50: 14.8 µM

CC1=CC(C)C2(COC(c3ccc[n+](C)c3)OC2)C(C)C1 (stereo unspecified)
IC50: 17.9 µM

COc1ccc(C2=[N+](C)CCn3cccc32)c(OC)c1
IC50: 10.2 µM

CCC(CC)CN1C(N(C)C)=NC[C@@H]1CC(C)C
IC50: 8.27 µM

CCCn1c2c(c(=N)c3c1CCC3)CCCC2
IC50: 11 µM

Clc1ccc(-c2cn(-c3ccccc3)c3[n+]2CCS3)cc1
IC50: 16.9 µM

COc1ccc(-n2cc(-c3ccc(OC(F)F)cc3)[n+]3c2CCCCC3)cc1
IC50: 2.29 µM

CC[N+](CC)(CC#Cc1ccccc1)CC#Cc1ccccc1
IC50: 4.37 µM

O=C(C[C@@H]1C/C=C\C[C@@H](NC(=O)OCC2c3ccccc3-c3ccccc32)C(=O)OC[C@@H](Cc2ccccc2)NC1=O)NCCO
IC50: 10 µM

CCn1c(=O)cc(SCC(=O)N2CCN(C3CCCCC3)CC2)c2ccccc21
IC50: 11.9 µM

CCCCOc1ccc(N2C(N)=NC(N)=NC23CCCCC3)cc1
IC50: 17.1 µM

COc1ccc(NS(=O)(=O)c2ccc(NC(C)=O)cc2)cc1OC
IC50: 7.92 µM

CNc1nc(NCc2ccccc2)c2ccccc2n1
IC50: 20 µM

COc1ccc(C(=O)C[n+]2cc(-c3ccc(OC)cc3)n3c2CCCC3)cc1
IC50: 6.41 µM

Cc1nc2ccccc2c2c1CC(C(C)(Cl)Br)O2 (stereo unspecified)
IC50: 5.82 µM

CCN(CC)S(=O)(=O)c1ccc(S(=O)(=O)N2CCCC(C(=O)NC3CC3)C2)cc1 (stereo unspecified)
IC50: 7.52 µM

CC(=O)/C(=N\Nc1ccc(Cl)cc1Cl)Sc1cccc2cccnc12
IC50: 1.12 µM

Cc1cccnc1CN1CCN(C(=O)c2cc(COc3ccc4ncccc4c3)on2)CC1
IC50: 5.18 µM

O=C(c1cc2nc(-c3ccc(F)cc3)cc(C(F)(F)F)n2n1)N1CCCCC1c1cccnc1 (stereo unspecified)
IC50: > 20 µM (inactive)

CCOc1ccc(S(=O)(=O)NCc2ccncc2)cc1NC(=O)c1ccccc1
IC50: 0.94 µM

O=C(N/N=C/c1cc2ccccc2nc1Cl)[C@H]1C[C@@H]1c1ccccc1
IC50: 16.4 µM

CCC(C)NC(=O)CCC(=O)OC1O[C@H]2OC3(C)CC[C@H]4[C@H](C)CCC(C1C)C24OO3 (stereo partly specified)
IC50: 0.421 µM

CCc1ccccc1NC(=S)N=Nc1c(O)n(C)c2ccc(S(=O)(=O)N3CCOCC3)cc12
IC50: 10.9 µM

CCc1c(C)nc2ncnn2c1N1CCN(S(=O)(=O)c2ccc(OC)cc2)CC1
IC50: 6.58 µM

CCN(CC)S(=O)(=O)c1ccc(C)c(NC(=S)N2CCN(Cc3ccc4c(c3)OCO4)CC2)c1
IC50: 12.2 µM

CC(=O)c1c(C)[nH]c(C(=O)OCC(=O)Nc2cccc(S(=O)(=O)N3CCCC3)c2)c1C
IC50: 6.51 µM

CCOC(=O)c1c(NC(=O)COc2ncnc3ccccc23)sc(C(C)=O)c1C
IC50: 10.1 µM

Cc1nn(-c2ccc(NC(=O)c3ccncc3)cc2)c(C)c1Cl
IC50: 9.25 µM

Cc1ccc(S(=O)(=O)NCCC2=CCCCC2)cc1C(N)=O
IC50: 8.71 µM

Cc1ccc(-c2csc(NC(=O)c3c(C)noc3C)n2)s1
IC50: 5.53 µM

COc1nnc(-c2ccc(N3CCCCC3)c(N)c2)c2ccccc12
IC50: 9.11 µM

Cc1cc(-c2ccccc2)cc(-c2ccccc2)[n+]1C
IC50: 4.46 µM

COc1ccc(-c2c[n+](CC(=O)c3ccccc3)c3n2CCCCC3)cc1
IC50: 14.1 µM

Cn1nc(CC(=O)NCc2ccc(C(F)(F)F)cc2)c2ccccc2c1=O
IC50: 6.65 µM

C[C@@H]1COC(=O)[C@@H](NC(=O)OCC2c3ccccc3-c3ccccc32)C/C=C\C[C@@H](CC(=O)N(CCO)Cc2ccccc2)C(=O)N1
IC50: > 20 µM (inactive)

Brc1ccc(-[n+]2c(-c3ccccc3)cc(-c3ccccc3)cc2-c2ccccc2)cc1
IC50: 4.82 µM

O=c1c2ccccc2sc2c(CO)ccc(NCCN3CCCCC3)c12
IC50: > 20 µM (inactive)

Cc1cc(N/N=C/c2ccc(O)cc2O)nc(-n2nc(C)cc2C)n1
IC50: 7.17 µM

Cc1cc(C)nc(SCC(=O)Nc2ccc(N3CCOCC3)c(Cl)c2)n1
IC50: 3.52 µM

CC(NC(=O)c1cc2c(=O)n3ccccc3nc2n(CC2CCCO2)c1=N)c1ccccc1 (stereo unspecified)
IC50: > 20 µM (inactive)

CC(C)(C)OC(=O)NCCCCCc1cn(CC(=O)NCCCCCCCCCCC(=O)N2CCN(C(=O)OC(C)(C)C)CC2)nn1
IC50: 2.93 µM

S=C(Nc1ccccc1)N1CCC(Cc2ccccc2)CC1
IC50: 5.67 µM

C=CCOC(=O)c1[nH]c2c(c1C)C(=O)CC(c1cc(OC)c(OC)c(OC)c1)C2 (stereo unspecified)
IC50: 1.98 µM

COc1ccc(CNCC(O)COc2cccc3c2OC(C)(C)C3)cc1 (stereo unspecified)
IC50: 5.99 µM

Clc1ccc(-n2cc(-c3ccc(Br)cc3)[n+]3c2CCCCC3)cc1
IC50: 7.04 µM

O=C(N[C@H]1C/C=C\C[C@@H](CC(=O)N(CCO)Cc2ccccc2)C(=O)NC[C@H](c2ccccc2)OC1=O)OCC1c2ccccc2-c2ccccc21
IC50: 7.18 µM

Cc1cc(Br)c(S(=O)(=O)NCc2ccncc2)cc1C
IC50: 8.04 µM

CN(Cc1ccc(OC(F)F)cc1)C(=O)c1cccc(S(=O)(=O)N2CCN(Cc3ccccc3)CC2)c1
IC50: 6.92 µM

COc1ccc(NS(=O)(=O)c2ccc(N3CCOCC3)c(N)c2)cc1
IC50: 5.16 µM

CCCCNc1c(-c2ccc(OC)c(Sc3ccc(OC)cc3)c2)nc2ccccn12
IC50: 6.31 µM

COc1ccc(-n2c(-c3ccc(Cl)cc3)c[n+]3c2CCc2ccccc2-3)cc1
IC50: 1.78 µM

CCC(C)[C@H]1CN=C(N)N1CCc1cccc2ccccc12 (stereo partly specified)
IC50: 6.63 µM

c1ccc(-c2cn(-c3ccccc3)c3[n+]2CCS3)cc1
IC50: 6.57 µM

COc1ccc(NS(=O)(=O)c2ccc(N3CCCCC3)c(N)c2)cc1
IC50: 5.14 µM

CN(Cc1ccc(OCC(O)CN2CCCCC2)cc1)Cc1ccnc2ccccc12 (stereo unspecified)
IC50: 8.47 µM

CC(C)n1c(-c2ccco2)csc1=Nc1cccnc1
IC50: 8.01 µM

CCC(=O)c1ccc(OCC(O)Cn2c(C)nc3ccccc32)cc1 (stereo unspecified)
IC50: 7.89 µM

CNc1ccccc1C(C)(C)c1cc(-c2cccc(Br)c2)no1
IC50: 2.02 µM

Cc1ccc(C2=C(CC(=O)O)C(=O)CC2)cc1
IC50: > 20 µM (inactive)

CCCCCCC[N+](CC)(CC)CCCCc1ccc(Cl)cc1
IC50: 5.6 µM

COc1ccc(CCNc2ncnc3c2oc2ccccc23)cc1OC
IC50: 2.72 µM

CCN1CCCC1CNc1ncnc2c1[nH]c1ccc(Cl)cc12 (stereo unspecified)
IC50: > 20 µM (inactive)

CCCCn1c(CN(C)Cc2ccccc2)nc2c1c(=O)n(C)c(=O)n2C
IC50: 6.85 µM
